Test results taken from US20250296959A1, “B7-H3 TARGETING PEPTIDES AND CONSTRUCTS THEREOF” (Mariana Oncology Inc., priority 2024, published 2025).
Starred links: 1 amine or outer side, 2 acyl side, 3 side chain; linkers in the order of their positions; H or OH if unused. Positions of bridges follow the written chain, without caps; N, C: chain ends. Non-standard residues stand in square brackets, D forms with d. Residues, ends and D or L forms follow the SMILES beside them. Groups on a side chain read outwards from the residue. *: point of attachment. Ala(piperidin-4-yl) = O=C([C@H](CC1CCN([*:3])CC1)N[*:1])[*:2]; DOTA = O=C(O)CN1CCN(CC(=O)O)CCN(CC(=O)*)CCN(CC(=O)O)CC1; Phe(4-NHCONH2) = NC(=O)Nc1ccc(C[C@H](N)C(=O)O)cc1; Trp(4-OMe) = COc1cccc2[nH]cc(C[C@H](N)C(=O)O)c12; Trp(5-F) = N[C@@H](Cc1c[nH]c2ccc(F)cc12)C(=O)O; X1 = C[C@@H](c1ccccc1)[C@H](N[*:1])C(=O)[*:2]; Ala(4-THP) = N[C@@H](CC1CCOCC1)C(=O)O; Val(3-OH) = CC(C)(O)[C@H](N)C(=O)O; pGlu = O=C1CC[C@@H](C(=O)O)N1; PEG4 = NCCOCCOCCOCCOCCC(=O)O; Tle = CC(C)(C)[C@H](N)C(=O)O; hLeu = CC(C)CC[C@H](N)C(=O)O

Target: T1, human 4lg B7-H3 (Homo sapiens, UniProt Q5ZPR3)
T1 sequence (Q5ZPR3 29-534): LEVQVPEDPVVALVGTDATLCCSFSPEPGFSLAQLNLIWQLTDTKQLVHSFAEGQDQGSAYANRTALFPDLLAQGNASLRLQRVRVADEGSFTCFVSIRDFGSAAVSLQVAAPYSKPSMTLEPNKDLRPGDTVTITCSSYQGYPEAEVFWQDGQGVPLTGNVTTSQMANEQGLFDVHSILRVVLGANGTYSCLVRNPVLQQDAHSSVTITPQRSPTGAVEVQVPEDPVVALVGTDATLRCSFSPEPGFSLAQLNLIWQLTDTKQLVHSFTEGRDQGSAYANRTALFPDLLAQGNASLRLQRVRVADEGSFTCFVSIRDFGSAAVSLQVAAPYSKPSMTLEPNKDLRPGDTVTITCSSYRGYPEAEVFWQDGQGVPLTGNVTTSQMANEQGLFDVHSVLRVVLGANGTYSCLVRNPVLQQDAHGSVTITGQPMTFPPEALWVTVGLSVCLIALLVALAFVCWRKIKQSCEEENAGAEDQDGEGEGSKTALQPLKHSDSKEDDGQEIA
Experiment: Affinity determination by surface plasmon resonance (SPR) to 4Ig B7-H3
Details: SPR KD—37° C., 4Ig B7-H3; 37° C. flow cell temperature

| Kd [nM] | SMILES |
| --- | --- |
| 1 to 10 | COc1cccc2[nH]cc(C[C@H](NC(=O)[C@@H]3CSSC[C@H](NC(=O)[C@H](Cc4ccc(O)cc4)NC(=O)[C@H](CCC(C)C)NC(C)=O)C(=O)N[C@@H](C(C)(C)C)C(=O)NCC(=O)N[C@@H](CC4CCNCC4)C(=O)N[C@@H](CC4CCOCC4)C(=O)N[C@@H](CC(=O)O)C(=O)N[C@@H](C(C)C)C(=O)N[C@@H](Cc4ccc(O)cc4)C(=O)N3)C(=O)N[C@@H](Cc3ccccc3)C(=O)N[C@H](C(=O)N[C@H](CCCCNC(=O)CN3CCN(CC(=O)O)CCN(CC(=O)O)CCN(CC(=O)O)CC3)C(=O)O)C(C)(C)O)c12 [compound 493, Ac-hLeu-Y-C-Tbg-G-PipAla-ThpA-D-V-Y-C-4MeOW-F-hydroxyVal-dLys(DOTA)-COOH] (Ac-[hLeu]YC[Tle]G[Ala(piperidin-4-yl)][Ala(4-THP)]DVYC[Trp(4-OMe)]F[Val(3-OH)][dK](DOTA)-OH; disulfide 3-11) |
| < 1 | CC(=O)N[C@@H](CCC(C)C)C(=O)N[C@@H](Cc1ccc(O)cc1)C(=O)N[C@H]1CSSC[C@@H](C(=O)N[C@@H](Cc2c[nH]c3ccc(F)cc23)C(=O)N[C@H](C(=O)N[C@H](C(=O)N[C@H](CCCCNC(=O)[C@H](CCC(=O)O)NC(=O)CN2CCN(CC(=O)O)CCN(CC(=O)O)CCN(CC(=O)O)CC2)C(=O)O)C(C)(C)O)[C@@H](C)c2ccccc2)NC(=O)[C@H](Cc2ccc(O)cc2)NC(=O)[C@H](C(C)C)NC(=O)[C@H](CC(=O)O)NC(=O)[C@H](CC2CCOCC2)NC(=O)[C@H](CC2CCNCC2)NC(=O)CNC(=O)[C@H](C(C)(C)C)NC1=O [compound 498, Ac-hLeu-Y-C-Tbg-G-PipAla-ThpA-D-V-Y-C-5FW-[(2S, 3S)beta-Me-Phe]-hydroxyVal-dLys(Glu-DOTA)-COOH] (Ac-[hLeu]YC[Tle]G[Ala(piperidin-4-yl)][Ala(4-THP)]DVYC[Trp(5-F)][X1][Val(3-OH)][dK]([Glu-DOTA])-OH; disulfide 3-11) |
| < 1 | CC(=O)N[C@@H](CCC(C)C)C(=O)N[C@@H](Cc1ccc(O)cc1)C(=O)N[C@H]1CSSC[C@@H](C(=O)N[C@@H](Cc2c[nH]c3ccc(F)cc23)C(=O)N[C@H](C(=O)N[C@H](C(=O)N[C@H](CCCCNC(=O)CCOCCOCCOCCOCCNC(=O)CN2CCN(CC(=O)O)CCN(CC(=O)O)CCN(CC(=O)O)CC2)C(=O)O)C(C)(C)O)[C@@H](C)c2ccccc2)NC(=O)[C@H](Cc2ccc(NC(N)=O)cc2)NC(=O)[C@H](C(C)C)NC(=O)[C@H](CC(=O)O)NC(=O)[C@H](CC2CCOCC2)NC(=O)[C@H](CC2CCNCC2)NC(=O)CNC(=O)[C@H](C(C)(C)C)NC1=O [compound 500, Ac-hLeu-Y-C-Tbg-G-PipAla-ThpA-D-V-Aph(Cbm)-C-5FW-[(2S, 3S)beta-Me-Phe]-hydroxyVal-dLys(PEG4-DOTA)-COOH] (Ac-[hLeu]YC[Tle]G[Ala(piperidin-4-yl)][Ala(4-THP)]DV[Phe(4-NHCONH2)]C[Trp(5-F)][X1][Val(3-OH)][dK]([PEG4-DOTA])-OH; disulfide 3-11) |
| < 1 | CC(=O)N[C@@H](CCC(C)C)C(=O)N[C@@H](Cc1ccc(O)cc1)C(=O)N[C@H]1CSSC[C@@H](C(=O)N[C@@H](Cc2c[nH]c3ccc(F)cc23)C(=O)N[C@H](C(=O)N[C@H](C(=O)N[C@H](CCCCNC(=O)CN2CCN(CC(=O)O)CCN(CC(=O)O)CCN(CC(=O)O)CC2)C(N)=O)C(C)(C)O)[C@@H](C)c2ccccc2)NC(=O)[C@H](Cc2ccc(O)cc2)NC(=O)[C@H](C(C)C)NC(=O)[C@H](CC(=O)O)NC(=O)[C@H](CC2CCOCC2)NC(=O)[C@H](CC2CCNCC2)NC(=O)CNC(=O)[C@H](C(C)(C)C)NC1=O [compound 502, Ac-hLeu-Y-C-Tbg-G-PipAla-ThpA-D-V-Y-C-5FW-[(2S, 3S)beta-Me-Phe]-hydroxyVal-dLys(DOTA)-CONH2] (Ac-[hLeu]YC[Tle]G[Ala(piperidin-4-yl)][Ala(4-THP)]DVYC[Trp(5-F)][X1][Val(3-OH)][dK](DOTA)-NH2; disulfide 3-11) |
| < 1 | CC(=O)N[C@@H](CCC(C)C)C(=O)N[C@@H](Cc1ccc(O)cc1)C(=O)N[C@H]1CSSC[C@@H](C(=O)N[C@@H](Cc2c[nH]c3ccc(F)cc23)C(=O)N[C@H](C(=O)N[C@H](C(=O)N[C@H](CCCCNC(=O)[C@H](CCC(=O)O)NC(=O)CN2CCN(CC(=O)O)CCN(CC(=O)O)CCN(CC(=O)O)CC2)C(=O)O)C(C)(C)O)[C@@H](C)c2ccccc2)NC(=O)[C@H](Cc2ccc(NC(N)=O)cc2)NC(=O)[C@H](C(C)C)NC(=O)[C@H](CC(=O)O)NC(=O)[C@H](CC2CCOCC2)NC(=O)[C@H](CC2CCNCC2)NC(=O)CNC(=O)[C@H](C(C)(C)C)NC1=O [compound 503, Ac-hLeu-Y-C-Tbg-G-PipAla-ThpA-D-V-Aph(Cbm)-C-5FW-[(2S, 3S)beta-Me-Phe]-hydroxyVal-dLys(Glu-DOTA)-COOH] (Ac-[hLeu]YC[Tle]G[Ala(piperidin-4-yl)][Ala(4-THP)]DV[Phe(4-NHCONH2)]C[Trp(5-F)][X1][Val(3-OH)][dK]([Glu-DOTA])-OH; disulfide 3-11) |
| < 1 | CC(C)CC[C@H](NC(=O)[C@@H]1CCC(=O)N1)C(=O)N[C@@H](Cc1ccc(O)cc1)C(=O)N[C@H]1CSSC[C@@H](C(=O)N[C@@H](Cc2c[nH]c3ccc(F)cc23)C(=O)N[C@H](C(=O)N[C@H](C(=O)N[C@H](CCCCNC(=O)CN2CCN(CC(=O)O)CCN(CC(=O)O)CCN(CC(=O)O)CC2)C(=O)O)C(C)(C)O)[C@@H](C)c2ccccc2)NC(=O)[C@H](Cc2ccc(NC(N)=O)cc2)NC(=O)[C@H](C(C)C)NC(=O)[C@H](CC(=O)O)NC(=O)[C@H](CC2CCOCC2)NC(=O)[C@H](CC2CCNCC2)NC(=O)CNC(=O)[C@H](C(C)(C)C)NC1=O [compound 504, Pyroglutamate-hLeu-Y-C-Tbg-G-PipAla-ThpA-D-V-Aph(Cbm)-C-5FW-[(2S, 3S)beta-Me-Phe]-hydroxyVal-dLys(DOTA)-COOH] ([pGlu][hLeu]YC[Tle]G[Ala(piperidin-4-yl)][Ala(4-THP)]DV[Phe(4-NHCONH2)]C[Trp(5-F)][X1][Val(3-OH)][dK](DOTA)-OH; disulfide 4-12) |
| < 1 | CC(C)CC[C@H](NC(=O)[C@@H]1CCC(=O)N1)C(=O)N[C@@H](Cc1ccc(O)cc1)C(=O)N[C@H]1CSSC[C@@H](C(=O)N[C@@H](Cc2c[nH]c3ccc(F)cc23)C(=O)N[C@H](C(=O)N[C@H](C(=O)N[C@H](CCCCNC(=O)[C@H](CCC(=O)O)NC(=O)CN2CCN(CC(=O)O)CCN(CC(=O)O)CCN(CC(=O)O)CC2)C(=O)O)C(C)(C)O)[C@@H](C)c2ccccc2)NC(=O)[C@H](Cc2ccc(NC(N)=O)cc2)NC(=O)[C@H](C(C)C)NC(=O)[C@H](CC(=O)O)NC(=O)[C@H](CC2CCOCC2)NC(=O)[C@H](CC2CCNCC2)NC(=O)CNC(=O)[C@H](C(C)(C)C)NC1=O [compound 505, Pyroglutamate-hLeu-Y-C-Tbg-G-PipAla-ThpA-D-V-Aph(Cbm)-C-5FW-[(2S, 3S)beta-Me-Phe]-hydroxyVal-dLys(Glu-DOTA)-COOH] ([pGlu][hLeu]YC[Tle]G[Ala(piperidin-4-yl)][Ala(4-THP)]DV[Phe(4-NHCONH2)]C[Trp(5-F)][X1][Val(3-OH)][dK]([Glu-DOTA])-OH; disulfide 4-12) |
| < 1 | CC(=O)N[C@@H](CCC(C)C)C(=O)N[C@@H](Cc1ccc(O)cc1)C(=O)N[C@H]1CSSC[C@@H](C(=O)N[C@@H](Cc2c[nH]c3ccc(F)cc23)C(=O)N[C@H](C(=O)N[C@H](C(=O)N[C@H](CCCCNC(=O)CN2CCN(CC(=O)O)CCN(CC(=O)O)CCN(CC(=O)O)CC2)C(=O)O)C(C)(C)O)[C@@H](C)c2ccccc2)NC(=O)[C@H](Cc2ccc(NC(N)=O)cc2)NC(=O)[C@H](C(C)C)NC(=O)[C@H](CC(=O)O)NC(=O)[C@H](CC2CCOCC2)NC(=O)[C@H](CC2CCNCC2)NC(=O)CNC(=O)[C@H](C(C)(C)C)NC1=O [compound 506, Ac-hLeu-Y-C-Tbg-G-PipAla-ThpA-D-V-Aph(Cbm)-C-5FW-[(2S, 3S)beta-Me-Phe]-hydroxyVal-dLys(DOTA)-COOH] (Ac-[hLeu]YC[Tle]G[Ala(piperidin-4-yl)][Ala(4-THP)]DV[Phe(4-NHCONH2)]C[Trp(5-F)][X1][Val(3-OH)][dK](DOTA)-OH; disulfide 3-11) |
| < 1 | CC(C)CC[C@H](NC(=O)[C@@H]1CCC(=O)N1)C(=O)N[C@@H](Cc1ccc(O)cc1)C(=O)N[C@H]1CSSC[C@@H](C(=O)N[C@@H](Cc2c[nH]c3ccc(F)cc23)C(=O)N[C@H](C(=O)N[C@H](C(=O)N[C@H](CCCCNC(=O)CN2CCN(CC(=O)O)CCN(CC(=O)O)CCN(CC(=O)O)CC2)C(=O)O)C(C)(C)O)[C@@H](C)c2ccccc2)NC(=O)[C@H](Cc2ccc(O)cc2)NC(=O)[C@H](C(C)C)NC(=O)[C@H](CC(=O)O)NC(=O)[C@H](CC2CCOCC2)NC(=O)[C@H](CC2CCNCC2)NC(=O)CNC(=O)[C@H](C(C)(C)C)NC1=O [compound 507, Pyroglutamate-hLeu-Y-C-Tbg-G-PipAla-ThpA-D-V-Y-C-5FW-[(2S, 3S)beta-Me-Phe]-hydroxyVal-dLys(DOTA)-COOH] ([pGlu][hLeu]YC[Tle]G[Ala(piperidin-4-yl)][Ala(4-THP)]DVYC[Trp(5-F)][X1][Val(3-OH)][dK](DOTA)-OH; disulfide 4-12) |
